{
  "source": "patent US12514906B2",
  "about": "“Use of C-type natriuretic peptide variants to treat skeletal dysplasia” (BIOMARIN PHARMACEUTICAL INC., priority 2015, dated 2026)",
  "origin": "cited, not measured here",
  "key": {"NPR-B": {"test_system": "NPR-B", "conditions": "CNP-53 compared with CNP-22"}, "cGMP production": {"test_system": "cGMP production", "conditions": "CNP-53 compared with CNP-22"}},
  "note": "Where no end group is shown, it is not given here.",
  "data": [
    {"substance": "CNP-53: active 53-amino acid peptide generated from pro-CNP by furin cleavage (DLRVDTKSRAAWARLLQEHPNARKYKGANKKGLSKGCFGLKLDRIGSMSGLGC; ends and bridges not checked; cysteine pairing not given here; UniProt P23582 74-126, looked up)", "values": [
      {"measurement": "binding to NPR-B", "setting": "NPR-B", "value": "bind similarly"},
      {"measurement": "induction of cGMP production", "setting": "cGMP production", "value": "dose-dependent and similar fashion"}
    ]},
    {"substance": "CNP: mature 22-amino acid wild type C-type natriuretic peptide", "values": [
      {"measurement": "plasma half-life", "setting": "in vivo in humans", "value": 2.6, "unit": "min"},
      {"measurement": "in vivo half-life", "setting": "normal human", "value": 2.6, "unit": "min"},
      {"measurement": "binding to NPR-B", "setting": "NPR-B", "value": "bind similarly"},
      {"measurement": "induction of cGMP production", "setting": "cGMP production", "value": "dose-dependent and similar fashion"}
    ]}
  ]
}
